Consider 2 molecules from US8019550B2, “Drug discovery method” (Keddem Bioscience Ltd., priority 2002, dated 2011).

This assay deals with T1, HIV-1 Protease (Human immunodeficiency virus type 1 group M subtype B, UniProt P04585).
T1 construct: effect on HIV-1 Protease
The experiment in a line: assay of selected molecules for activity (effect on HIV-1 Protease). In kind it is biochemical. The note with it: various concentrations (between 10 and 1000 micro-molar). How it is done:
A set of molecules including the triangle measures were selected and physically assayed and shown to have the expected binding to HIV-1 Protease.
The triplets were used as a query input for a search in MDL's ACD-SC (available chemical directory for screening).
All of molecules were actually assayed and appeared to show activity (effect on HIV-1 Protease) at various concentrations (between 10 and 1000 micro-molar). […] Also molecules 34-39 were assayed, with no activity shown, as expected.

Take `O=C1C2C(c3ccccc3)NC(c3ccccc3)C1C(c1ccccc1)OC2c1ccccc1` (centres unmarked) [compound 7]: the “activity (effect on HIV-1 Protease)” value is given as “active”.
Next, `Cc1c(-c2ccccc2)c(=O)n(C)c2c1c(=O)n(-c1ccccc1)c(=O)n2-c1ccccc1` [compound 27]: “active”.
